Test results as given in PubChem BioAssay (NCI).
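Each compound was tested at five concentrations against cells in 96-well plates for 48 hours. GI50 marks 50% less growth. TGI marks complete inhibition of growth.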

Experiments:
Experiment in all cases: NCI anticancer screen, dose series, 48 h
[1] = tested on: 786-0 renal
[2] = tested on: A498 renal
[3] = tested on: A549 NSCLC
[4] = tested on: ACHN renal
[5] = tested on: BT-549 breast
[6] = tested on: CCRF-CEM leukemia
[7] = tested on: COLO 205 colon
[8] = tested on: EKVX NSCLC
[9] = tested on: HCC-2998 colon
[10] = tested on: HCT-116 colon
[11] = tested on: HCT-15 colon
[12] = tested on: HL-60(TB) leukemia
[13] = tested on: HOP-62 NSCLC
[14] = tested on: HOP-92 NSCLC
[15] = tested on: HS 578T breast
[16] = tested on: HT29 colon
[17] = tested on: IGROV1 ovarian
[18] = tested on: K-562 leukemia
[19] = tested on: KM12 colon
[20] = tested on: LOX IMVI melanoma
[21] = tested on: M14 melanoma
[22] = tested on: MALME-3M melanoma
[23] = tested on: MCF7 breast
[24] = tested on: MDA-MB-231 breast
[25] = tested on: MDA-MB-435
[26] = tested on: MOLT-4 leukemia
[27] = tested on: NCI-H226 lung
[28] = tested on: NCI-H23 lung
[29] = tested on: NCI-H460 lung
[30] = tested on: NCI-H522 lung
[31] = tested on: NCI/ADR-RES ovarian
[32] = tested on: OVCAR-3 ovarian
[33] = tested on: OVCAR-4 ovarian
[34] = tested on: OVCAR-5 ovarian
[35] = tested on: OVCAR-8 ovarian
[36] = tested on: PC-3 prostate
[37] = tested on: RPMI-8226 leukemia
[38] = tested on: RXF 393 renal
[39] = tested on: SF-268 CNS
[40] = tested on: SF-295 CNS
[41] = tested on: SF-539 CNS
[42] = tested on: SK-MEL-2 melanoma
[43] = tested on: SK-MEL-28 melanoma
[44] = tested on: SK-MEL-5 melanoma
[45] = tested on: SK-OV-3 ovarian
[46] = tested on: SN12C renal
[47] = tested on: SNB-19 CNS
[48] = tested on: SNB-75 CNS
[49] = tested on: SR leukemia
[50] = tested on: SW-620 colon
[51] = tested on: T-47D breast
[52] = tested on: TK-10 renal
[53] = tested on: U251 CNS
[54] = tested on: UACC-257 melanoma
[55] = tested on: UACC-62 melanoma
[56] = tested on: UO-31 renal

## CCN1CCN(c2cc(C)nc(N(CCCNc3ccnc4cc(Cl)ccc34)Cc3cccs3)n2)CC1
[1]
  GI50: 1.56 µM
  TGI: 3.58 µM
[2]
  GI50: 2.41 µM
  TGI: 7.13 µM
[3]
  GI50: 3.22 µM
  TGI: 14.4 µM
[4]
  GI50: 3.38 µM
  TGI: 9.22 µM
[5]
  GI50: 1.93 µM
  TGI: 5.04 µM
[6]
  GI50: 2.7 µM
  TGI: 12.5 µM
[7]
  GI50: 1.57 µM
  TGI: 3.32 µM
[8]
  GI50: 3.88 µM
  TGI: 16.6 µM
[9]
  GI50: 1.98 µM
  TGI: 4.58 µM
[10]
  GI50: 1.32 µM
  TGI: 10.4 µM
[11]
  GI50: 1.33 µM
  TGI: 4.51 µM
[12]
  GI50: 2.14 µM
  TGI: 4.15 µM
[13]
  GI50: 2.79 µM
  TGI: 15.2 µM
[14]
  GI50: 1.55 µM
  TGI: 3.79 µM
[15]
  GI50: 2.02 µM
  TGI: 5.02 µM
[16]
  GI50: 1.31 µM
  TGI: 4.33 µM
[17]
  GI50: 2.11 µM
  TGI: 6.58 µM
[18]
  GI50: 0.525 µM
  TGI: 2.29 µM
[19]
  GI50: 2.62 µM
  TGI: 12.7 µM
[20]
  GI50: 1.84 µM
  TGI: 3.59 µM
[21]
  GI50: 1.8 µM
  TGI: 3.51 µM
[22]
  GI50: 2.01 µM
  TGI: 3.7 µM
[23]
  GI50: 2.22 µM
  TGI: 10.3 µM
[24]
  GI50: 1.4 µM
  TGI: 3.56 µM
[25]
  GI50: 1.59 µM
  TGI: 2.95 µM
[26]
  GI50: 1.62 µM
  TGI: 6.12 µM
[27]
  GI50: 8.12 µM
  TGI: 31.5 µM
[28]
  GI50: 3.21 µM
  TGI: 14.3 µM
[29]
  GI50: 2.47 µM
  TGI: 7.84 µM
[30]
  GI50: 1.81 µM
  TGI: 3.81 µM
[31]
  GI50: 2.96 µM
  TGI: 16.8 µM
[32]
  GI50: 1.83 µM
  TGI: 6.03 µM
[33]
  GI50: 2.11 µM
  TGI: 12.7 µM
[34]
  GI50: 3.97 µM
  TGI: 15.3 µM
[35]
  GI50: 3.06 µM
  TGI: 10.9 µM
[36]
  GI50: 3.11 µM
  TGI: 15.9 µM
[37]
  GI50: 1.57 µM
  TGI: 4.82 µM
[38]
  GI50: 1.45 µM
  TGI: 3.17 µM
[39]
  GI50: 2.03 µM
  TGI: 6.62 µM
[40]
  GI50: 1.84 µM
  TGI: 3.73 µM
[41]
  GI50: 1.76 µM
  TGI: 3.33 µM
[42]
  GI50: 1.98 µM
  TGI: 3.92 µM
[43]
  GI50: 1.82 µM
  TGI: 3.39 µM
[44]
  GI50: 1.72 µM
  TGI: 3.11 µM
[45]
  GI50: 3.29 µM
  TGI: 10.5 µM
[46]
  GI50: 3.35 µM
  TGI: 14 µM
[47]
  GI50: 3.88 µM
  TGI: 13.9 µM
[48]
  GI50: 1.5 µM
  TGI: 3.2 µM
[49]
  GI50: 1.29 µM
  TGI: 3.23 µM
[50]
  GI50: 1.59 µM
  TGI: 3.86 µM
[51]
  GI50: 2.29 µM
  TGI: 6.89 µM
[52]
  GI50: 1.82 µM
  TGI: 4.09 µM
[53]
  GI50: 2.22 µM
  TGI: 7.05 µM
[54]
  GI50: 2.1 µM
  TGI: 3.94 µM
[55]
  GI50: 1.93 µM
  TGI: 3.56 µM
[56]
  GI50: 1.33 µM
  TGI: 2.88 µM
